From patent publication US5597829A, “Lactone stable formulation of camptothecin and methods for uses thereof” (priority 1994, dated 1997)
“Also recorded” adds a separate entry of the source. Where two headings read alike, the source gives them in different places.

Columns and labels:
[1] = cited from earlier work
[2] = cited from earlier work; remark: listed apart in the source
[3] = mice; cited from earlier work
[4] = cited from earlier work; remark: listed apart in the source
[5] = Phase I pharmacokinetics: conversion of CPT-11 into HECPT; format: in vivo, human; conditions: per/mg basis, from mean peak plasma concentrations
[6] = cited from earlier work; remark: listed apart in the source
[7] = test system: xenografts of human tumors; conditions: nude mice; cited from earlier work
[8] = test system: LD1210 leukemia; conditions: 10-100 mg/kg intraperitoneally; cited from earlier work
[9] = test system: P388 tumor; conditions: intermittent bolus (days 1, 5, and 9), i.p.; cited from earlier work
[10] = test system: topoisomerase I in P388 cells; conditions: cited from earlier work
[11] = test system: MOLT3 cells; conditions: cited from earlier work
[12] = similar solutions; cited from earlier work
[13] = Masuda et al, refractory or relapsed small cell lung cancer, 100 mg/m^2 weekly
[14] = Negoro et al, small cell lung cancer, 100 mg/m^2 weekly, 41 pts
[15] = Shimada et al, colon cancer, 100 mg/m^2 /week or 150 mg/m^2 /Q 2 wks
[16] = Takeuchi et al, cervical cancer, 69 pts

## CCc1c2c(nc3ccc(OC(=O)N4CCC(N5CCCCC5)CC4)cc13)-c1cc3c(c(=O)n1C2)COC(=O)[C@]3(O)CC [CPT-11, 7-Ethyl-10-[4-(1-piperidino)-1-piperidino]Carbonyloxy-Camptothecin]
[1]; single dose I.V., 50 mg/m^2
  Fractional amount of lactone species, CpMax based: 0.51
[1]; single dose I.V., 80 mg/m^2
  Fractional amount of lactone species, CpMax based: 0.44
[1]; single dose I.V., 100 mg/m^2
  Fractional amount of lactone species, CpMax based: 0.53
[1]; single dose I.V., 125 mg/m^2
  Fractional amount of lactone species, CpMax based: 0.55
[1]; single dose I.V., 150 mg/m^2
  Fractional amount of lactone species, CpMax based: 0.42
[1]; single dose I.V., 180 mg/m^2
  Fractional amount of lactone species, CpMax based: 0.42
[1]; single dose I.V.
  overall fractional concentration of the lactone species over dose range: fairly constant
[2]; Fukuoka et al, untreated non small cell lung cancer, 100 mg/m^2
  partial responses: 23/72
[2]; [13]
  Response Rate: 47%
  partial responses: 7/15
[2]; [14]
  Response Rate: 33.3%
  complete responses: 2 CRs
  partial responses: 7 PRs
[2]; Negoro et al, small cell lung cancer
  N/V: 61.5%
[2]; Ohno et al, 62 pts
  Gastrointestinal toxicity: 76%
  Reported Toxicities: Thrombocytopenia
[2]; Ohno et al, leukemia/lymphoma, 20 mg/m^2 bid x7
  Response Rate: 25 % RR
[2]; Ohno et al, leukemia/lymphoma, 40 mg/m^2 Q0x5
  partial response rate: 34 % PR
[2]; Ohno et al, leukemia/lymphoma, 200 mg Q3
  Response: No resp.
[2]; Shimada et al, 17 pts
  N/V: 35%
[2]; [15]
  Response Rate: 46%
  partial responses: 6/17
[2]; [16]
  Response Rate (RR): 23.6%
  complete responses: SCR
  partial responses: 8 PR
[2]; Takeuchi et al, cervical cancer
  N/V: 51%
[2]; in vivo
  Alopecia: 38.1%
  Diarrhea: 39.1%
  alopecia: 40.0%
  pneumonitis: 12.5
[3]
  plasma concentration of HECPT after CPT-11 compared to after HECPT: maintained longer after CPT-11 administration than after treatment with HECPT
[4]; Clavel et al, 90 min QDx3 Q21 days, 115 mg/m^2 /d (33-115), 37 pts
  Toxicity (* dose limiting): Neutropenia*; also recorded: diarrhea; also recorded: nausea; also recorded: vomiting; also recorded: alopecia
[4]; Clavel et al, Breast, 37 pts
  partial responses (PR): 1 PR
[4]; Clavel et al, Mesothelioma, 37 pts
  partial responses (PR): 1 PR
[4]; Culine et al, 90 min Q21 days, 150 mg/m^2 /wk (50-150), 59 pts
  Toxicity (* dose limiting): Neutropenia*; also recorded: diarrhea*; also recorded: vomiting; also recorded: alopecia; also recorded: fatigue; also recorded: stomatitis
[4]; Culine et al, cervix, 59 pts
  partial responses (PR): 1 PR
[4]; Culine et al, esophagus, 59 pts
  partial responses (PR): 1 PR
[4]; Culine et al, ovarian, 59 pts
  partial responses (PR): 1 PR
[4]; Culine et al, renal, 59 pts
  partial responses (PR): 1 PR
[4]; Negoro et al, 30 min infusion weekly, 100 mg/m^2 (50-150), 17 pts
  Toxicity (* dose limiting): Neutropenia* and Diarrhea* and N/V and alopecia and liver
[4]; Negoro et al, NS CLC, 17 pts
  partial responses (PR): 2 PRs
[4]; Ohe et al, 36 pts
  responses by tumor type: None
[4]; Ohe et al, 120 hr CI Q3 wks, 40 mg/m^2 /d (5-40), 36 pts
  Toxicity (* dose limiting): Diarrhea*; also recorded: nausea; also recorded: vomiting; also recorded: thrombocytopenia; also recorded: anemia; also recorded: liver
[4]; Phase I and Phase II trials
  major reported, dose-limiting toxicities: Neutropenia and diarrhea
[4]; Rothenberg et al, Colon Ca, 32 pts
  partial responses (PR): 2 PRs
[4]; Rothenberg et al, QWx4 Q42 days, 180 mg/m^2 /wk (50-180), 32 pts
  Toxicity (* dose limiting): Diarrhea*; also recorded: Neutropenia; also recorded: nausea; also recorded: vomiting; also recorded: alopecia
[4]; Rowinsky et al, 90 min infusion Q21 day, 240 mg/m^2 (100-345), 32 pts
  Toxicity (* dose limiting): Neutropenia* and vomiting and diarrhea and abd. and flushing
[4]; Rowinsky et al, Cervix Ca, 32 pts
  partial responses (PR): 1 PR
[4]; Rowinsky et al, Colon Cancer, 32 pts
  partial responses (PR): 1 PR
[5]
  administered CPT-11 converted into HECPT: 1.5% to 9
[6]; 5-day continuous intravenous infusion
  conversion of CPT-11 to HECPT: saturable process
[7]
  dependence of tumor sensitivity on ability to produce HECPT: independent of their ability to produce HECPT

## CCc1c2c(nc3ccccc13)-c1cc3c(c(=O)n1C2)COC(=O)[C@]3(O)CC [ECPT, 7-ethyl camptothecin]
[8]
  T/C (treated/control) ratios: inferior to that of CPT-11 administration under the same conditions

## CCc1c2c(nc3ccc(O)cc13)-c1cc3c(c(=O)n1C2)COC(=O)[C@]3(O)CC [HECPT, 10-hydroxy 7-ethyl camptothecin]
[1]; in vivo, iv
  overall fractional concentration of the lactone species over dose range: fairly constant
[9]
  anti-tumor activity compared to CPT-11: little anti-tumor activity compared to CPT-11
[10]
  greater inhibitory activity than CPT-11 against topoisomerase I: 3600 fold
[8]
  T/C (treated/control) ratios: inferior to that of CPT-11 administration under the same conditions
[11]
  more potent than CPT-11 in generating single-strand DNA breaks: approximately 1000 fold
[6]; human subjects
  correlation of HECPT pharmacokinetics with dose or of CPT-11 pharmacokinetics with toxicity: lack of correlation

## COc1cc([C@@H]2c3cc4c(cc3[C@@H](O[C@@H]3O[C@@H]5CO[C@@H](C)O[C@H]5[C@H](O)[C@H]3O)[C@H]3COC(=O)[C@H]23)OCO4)cc(OC)c1O [etoposide]
[12]
  bioavailability following oral administration relative to intravenous: substantially equivalent
